Results from ChEMBL document CHEMBL5620397, “Design, synthesis and biological evaluation of 3-substituted-2-thioxothiazolidin-4-one (rhodanine) derivatives as antitubercular agents against Mycobacterium tuberculosis protein tyrosine phosphatase B” (Eur J Med Chem, 2023).
pIC50: −log10 of the molar value. Converted amounts (≈) assume the structure as drawn.

How the values were obtained:
[1] = biological target: T1, Triple specificity protein phosphatase PtpB (Mycobacterium tuberculosis (strain ATCC 25618 / H37Rv)) (UniProt I6WXK4); experiment: (§1) Inhibition of Mycobacterium tuberculosis H37Rv ptpB expressed in Escherichia coli BL21(DE3) at 50 uM using pNPP as substrate preincubated for 10 mins followed by substrate addition and measured for 5 mins by spectrophotometer analysis relative to control; details: time 15.0 min
T1 sequence (whole entry): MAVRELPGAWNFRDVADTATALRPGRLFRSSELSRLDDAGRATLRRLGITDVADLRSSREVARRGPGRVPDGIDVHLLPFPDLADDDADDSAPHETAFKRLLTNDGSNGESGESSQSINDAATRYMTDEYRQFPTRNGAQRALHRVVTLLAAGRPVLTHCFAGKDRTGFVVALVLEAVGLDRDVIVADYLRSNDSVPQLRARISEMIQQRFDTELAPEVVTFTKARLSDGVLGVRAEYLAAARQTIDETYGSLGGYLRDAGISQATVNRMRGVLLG

[2] = biological target: T1, Triple specificity protein phosphatase PtpB (Mycobacterium tuberculosis (strain ATCC 25618 / H37Rv)); experiment: Inhibition of Mycobacterium tuberculosis H37Rv ptpB expressed in Escherichia coli BL21(DE3) at 10 uM using pNPP as substrate preincubated for 10 mins followed by substrate addition and measured for 5 mins by spectrophotometer analysis relative to control; details: time 15.0 min
[3] = biological target: T2, Tyrosine-protein phosphatase non-receptor type 1 (Homo sapiens, UniProt P18031); experiment: Inhibition of recombinant human PTP1B using pNPP as substrate preincubated for 5 mins followed by substrate addition and measured for 10 mins; type: toxicity
T2 sequence (P18031 whole entry): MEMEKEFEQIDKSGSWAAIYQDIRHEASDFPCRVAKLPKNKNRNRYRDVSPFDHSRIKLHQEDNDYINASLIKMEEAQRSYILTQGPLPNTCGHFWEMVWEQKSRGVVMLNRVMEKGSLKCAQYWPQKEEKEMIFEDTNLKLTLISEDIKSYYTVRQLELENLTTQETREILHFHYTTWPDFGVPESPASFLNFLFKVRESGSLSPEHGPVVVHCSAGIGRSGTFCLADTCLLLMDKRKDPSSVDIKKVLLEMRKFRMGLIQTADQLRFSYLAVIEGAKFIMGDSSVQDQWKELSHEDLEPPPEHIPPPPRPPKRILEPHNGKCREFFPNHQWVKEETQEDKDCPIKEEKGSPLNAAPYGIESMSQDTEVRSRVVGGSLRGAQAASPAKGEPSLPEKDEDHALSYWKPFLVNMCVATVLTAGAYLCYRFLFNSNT

[4] = biological target: T3, Triple specificity protein phosphatase PtpB (Mycobacterium tuberculosis (strain ATCC 25618 / H37Rv), UniProt I6WXK4); experiment: Inhibition of Mycobacterium tuberculosis H37Rv ptpB expressed in Escherichia coli BL21(DE3) using pNPP as substrate preincubated for 10 mins followed by substrate addition and measured for 5 mins by spectrophotometer analysis
T3 sequence (I6WXK4 whole entry): T1 sequence (whole entry)

[5] = test system: Mycobacterium tuberculosis; experiment: Antituberculosis activity against Mycobacterium tuberculosis H37Rv by microplate alamar blue assay; type: functional
Vero = experiment: cells; details: Chlorocebus sabaeus, 48 h
Description: Cytotoxicity against african green monkey Vero cells after 48 hrs by MTT assay

[6] = Cytotoxicity against mouse J774.G8 cells after 48 hrs by MTT assay; type: functional, cell-based; details: J774.G8, 48 h
[7] = test system: PTP1B versus M. tuberculosis ptpB; experiment: Selectivity index, ratio of IC50 for human PTP1B to Mycobacterium tuberculosis H37Rv ptpB; type: toxicity; details: read-out: Ratio IC50
[8] = Metabolic stability in mouse liver microsomes in absence of NADPH by LC-MS/MS assay; type: ADME, Microsome
[9] = test system: Mycobacterium tuberculosis; experiment: Antituberculosis activity against Mycobacterium tuberculosis H37Rv in mouse J774A.1 cells assessed as reduction in intracellular bacterial burden measured after 21 days by agar plate method; type: functional, organism-based; details: J774.A1, dose 1-10 µg/ml, time 21.0 day
[10] = Metabolic stability in human liver microsomes assessed as intrinsic clearance per mg protein preincubated for 5 mins followed by NADPH addition and measured upto 30 mins by LC-MS/MS assay; type: ADME, Microsome; details: time < 35 min, read-out: CLH
[11] = Metabolic stability in mouse liver microsomes assessed as substrate remaining preincubated for 5 mins followed by NADPH addition and measured upto 30 mins by LC-MS/MS assay; type: ADME, Microsome; details: time < 35 min, read-out: Stability
[12] = Metabolic stability in mouse liver microsomes assessed as intrinsic clearance per mg protein preincubated for 5 mins followed by NADPH addition and measured upto 30 mins by LC-MS/MS assay; type: ADME, Microsome; details: time < 35 min, read-out: CLH
[13] = Metabolic stability in human liver microsomes assessed as substrate remaining preincubated for 5 mins followed by NADPH addition and measured upto 30 mins by LC-MS/MS assay; type: ADME, Microsome; details: time < 35 min, read-out: Stability
[14] = Metabolic stability in mouse liver microsomes assessed as half life preincubated for 5 mins followed by NADPH addition and measured upto 30 mins by LC-MS/MS assay; type: ADME, Microsome; details: time < 35 min
[15] = biological target: T4, Low molecular weight protein-tyrosine phosphatase A (Mycobacterium tuberculosis) (UniProt P9WIA1); experiment: Inhibition of Mycobacterium tuberculosis H37Rv ptpA expressed in Escherichia coli BL21(DE3) at 10 uM using pNPP as substrate preincubated for 10 mins followed by substrate addition and measured for 5 mins by spectrophotometer analysis relative to control; details: time 15.0 min
T4 sequence (whole entry): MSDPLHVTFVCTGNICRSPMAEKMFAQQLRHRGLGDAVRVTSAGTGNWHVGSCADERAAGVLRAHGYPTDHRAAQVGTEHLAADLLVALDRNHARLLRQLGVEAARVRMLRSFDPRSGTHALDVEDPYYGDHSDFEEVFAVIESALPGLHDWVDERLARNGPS

[16] = Metabolic stability in human liver microsomes assessed as half life preincubated for 5 mins followed by NADPH addition and measured upto 30 mins by LC-MS/MS assay; type: ADME, Microsome; details: time < 35 min
[17] = Metabolic stability in human liver microsomes in absence of NADPH by LC-MS/MS assay; type: ADME, Microsome
[18] = biological target: T5, Phosphotyrosine protein phosphatase (Mycobacterium tuberculosis, UniProt A0A045ISB3); experiment: Inhibition of Mycobacterium tuberculosis ptpB
T5 sequence (A0A045ISB3 whole entry): T1 sequence (whole entry)

[19] = biological target: Triple specificity protein phosphatase PtpB (Mycobacterium tuberculosis (strain ATCC 25618 / H37Rv)) (UniProt I6WXK4); experiment: as §1; details: time 15.0 min; remark: listed apart in the source

Row | Compound | inhibition [1] [%] | pIC50 [3] | pIC50 [4] | further results
1 | CCCC[C@H](C(=O)O)N1C(=O)/C(=C/c2ccc(-c3ccc(F)c(C(F)(F)F)c3)cc2)SC1=S | 26.4 |  |  | 
2 | CCCC[C@@H](C(=O)O)N1C(=O)/C(=C/c2ccc(-c3cccc(C(F)(F)F)c3)c(Cl)c2)SC1=S |  | 5.82 | 6.38 | inhibition [2]: 99.6%
3 | O=C(O)[C@@H](Cc1ccccc1)N1C(=O)/C(=C/c2ccc(-c3ccc(F)c(C(F)(F)F)c3)cc2)SC1=S | 56.8 |  |  | 
4 | CCCC[C@@H](C(=O)O)N1C(=O)/C(=C/c2ccc(-c3ccc(F)c(C(F)(F)F)c3)c3ccccc23)SC1=S |  | 5.26 | 6.17 | inhibition [2]: 105%
5 | CCCC[C@@H](C(=O)O)N1C(=O)/C(=C/c2ccc(-c3cccc(Cl)c3)cn2)SC1=S |  | 6.41 | 6.28 | inhibition [2]: 99.5%
6 | O=C(O)CN1C(=O)/C(=C/c2ccc(-c3ccc(F)c(C(F)(F)F)c3)cc2)SC1=S | 99.4 |  | 4.78 | 
7 | O=C(O)[C@H](C1CCCCC1)N1C(=O)/C(=C/c2ccc(-c3ccc(C(F)(F)F)cc3)cc2)SC1=S | 103 |  | 5.50 | 
8 | O=C(O)[C@H](C1CCCCC1)N1C(=O)/C(=C/c2ccc(-c3cccc(Cl)c3)cc2)SC1=S | 106 | 5.95 | 6.00 | 
9 | NNC(=O)c1ccncc1 [ISONIAZID] |  |  |  | MIC [5]: 0.038 µg/mL (≈ 0.277 µM); IC50 (Vero): > 64 µg/mL; IC50 [6]: > 64 µg/mL
10 | CCCC[C@@H](C(=O)O)N1C(=O)/C(=C/c2ccc(-c3cccc(Cl)c3)cc2)SC1=S | 102 | 5.73 | 6.42 | selectivity ratio [7]: 5
11 | CCCC[C@@H](C(=O)O)N1C(=O)/C(=C/c2ccc(-c3ccc(Cl)cc3)cc2)SC1=S | 98.9 | 5.82 | 6.22 | 
12 | CCCC[C@@H](C(=O)O)N1C(=O)/C(=C/c2ccc(-c3ccc(OC)cc3)cc2)SC1=S | 99.4 | 6.11 | 6.26 | 
13 | CCCC[C@@H](C(=O)O)N1C(=O)/C(=C/c2ccc(-c3cccc(C(F)(F)F)c3)c3ccccc23)SC1=S |  | 7.40 | 6.23 | inhibition [2]: 98.6%
14 | CCCC[C@@H](C(=O)O)N1C(=O)/C(=C/c2ccc(-c3cccc(Cl)c3)s2)SC1=S |  | 6.80 | 6.36 | inhibition [2]: 99%
15 | CCCC[C@@H](C(=O)O)N1C(=O)/C(=C/c2ccc(-c3cccc(Cl)c3)c3ccccc23)SC1=S |  | 5.82 | 6.17 | inhibition [2]: 99.9%
16 | O=C(O)[C@H](C1CCCCC1)N1C(=O)/C(=C/c2ccc(-c3cccc(C(F)(F)F)c3)cc2)SC1=S | 96.5 | 5.76 | 6.46 | MIC [5]: 31.4 µg/mL (≈ 62.1 µM); Stability [8]: Stable; Activity [9]: Dose-Dependent Effect; microsomal CLint [10]: < 6.1 µL/min/mg; remaining at 0.5 h [11]: 80%; microsomal CLint [12]: < 22.1 µL/min/mg; remaining at 0.5 h [13]: 101%; half-life [14]: > 1.55 h; inhibition [15]: 16.6%; half-life [16]: > 1.55 h; selectivity ratio [7]: 5; IC50 (Vero): 30.6 µg/mL (≈ 60.5 µM); IC50 [6]: 38 µg/mL (≈ 75.2 µM); Stability [17]: Stable
17 | CCCC[C@@H](C(=O)O)N1C(=O)/C(=C/c2ccc(-c3ccc(F)c(C(F)(F)F)c3)cc2)SC1=S | 106 | 4.95 | 6.32 | MIC [5]: 31.7 µg/mL (≈ 63.7 µM); Stability [8]: Stable; Activity [9]: Dose-Dependent Effect; microsomal CLint [10]: < 6.1 µL/min/mg; remaining at 0.5 h [11]: 101%; microsomal CLint [12]: < 22.1 µL/min/mg; remaining at 0.5 h [13]: 96.9%; half-life [14]: > 1.55 h; inhibition [15]: 20.2%; half-life [16]: > 1.55 h; selectivity ratio [7]: 20; IC50 (Vero): 28.2 µg/mL (≈ 56.7 µM); IC50 [6]: 47.7 µg/mL (≈ 95.9 µM); Stability [17]: Stable

Row | Compound | inhibition [1] [%] | pIC50 [3] | pIC50 [4] | further results
18 | O=C(O)[C@H](c1ccccc1)N1C(=O)/C(=C/c2ccc(-c3ccc(F)c(C(F)(F)F)c3)cc2)SC1=S | 97 |  | 5.63 | 
19 | Cc1onc(C(=O)O)c1-c1cccc(-c2cc(Cl)c(O)c(Cl)c2)c1 |  |  |  | pIC50 [18]: 5.53
20 | O=C(O)[C@H](C1CCCCC1)N1C(=O)/C(=C/c2ccc(-c3ccc(F)c(C(F)(F)F)c3)cc2)SC1=S | 101 | 5.27 | 6.31 | MIC [5]: 30.5 µg/mL (≈ 58.3 µM); Stability [8]: Stable; Activity [9]: Dose-Dependent Effect; microsomal CLint [10]: < 6.1 µL/min/mg; remaining at 0.5 h [11]: 101%; microsomal CLint [12]: < 22.1 µL/min/mg; remaining at 0.5 h [13]: 101%; half-life [14]: > 1.55 h; inhibition [15]: 27.1%; half-life [16]: > 1.55 h; IC50 (Vero): 30.2 µg/mL (≈ 57.7 µM); IC50 [6]: > 64 µg/mL; Stability [17]: Stable
21 | CCCC[C@@H](C(=O)O)N1C(=O)/C(=C/c2ccc(-c3cccc(OC)c3)cc2)SC1=S | 100 | 6.37 | 6.12 | 
22 | CCOC(=O)C1=C(C)Oc2nc(C)n(Cc3cn([C@@H]4O[C@H](COC(C)=O)[C@@H](OC(C)=O)[C@H](OC(C)=O)[C@H]4OC(C)=O)nn3)c(=O)c2C1c1cc(OC)c(OC)c(OC)c1 (some centres undefined) |  |  |  | pIC50 [18]: 5.81
23 | CCCC[C@@H](C(=O)O)N1C(=O)/C(=C/c2ccc(-c3ccc(C(F)(F)F)cc3)cc2)SC1=S | 100 | 5.87 | 6.07 | 
24 | CCN(CC)c1ccc(/C=C2\SC(=S)NC2=O)c(OCc2ccc(Cl)cc2Cl)c1 | > 35 |  |  | 
25 | CCCC[C@@H](C(=O)O)N1C(=O)/C(=C/c2ccc(-c3ccc(Cl)s3)cc2)SC1=S | 98.4 | 6.70 | 6.37 | 
26 | O=C1OC(c2ccccc2C(F)(F)F)C(c2ccc3ccccc3n2)=C1O (centres undefined) |  |  |  | pIC50 [18]: 4.51
27 | O=C(O)[C@H](Cc1ccccc1)N1C(=O)/C(=C/c2ccc(-c3ccc(F)c(C(F)(F)F)c3)cc2)SC1=S | 71.3 |  | 6.04 | 
28 | CCCC[C@@H](C(=O)O)N1C(=O)/C(=C/c2ccc(-c3ccccc3)cc2)SC1=S | 94 |  | 6.21 | 
29 | O=C(O)[C@H](C1CCCCC1)N1C(=O)/C(=C/c2ccc(-c3ccccc3C(F)(F)F)cc2)SC1=S | 93 | 5.80 | 6.04 | 
30 | O=C(O)[C@@H](C1CCCCC1)N1C(=O)/C(=C/c2ccc(-c3ccc(F)c(C(F)(F)F)c3)cc2)SC1=S | 30.5 |  |  | 
31 | CCCC[C@@H](C(=O)O)N1C(=O)/C(=C/c2ccc(-c3cccc(Cl)c3)c(Cl)c2)SC1=S |  | 6.03 | 6.48 | inhibition [2]: 102%
32 | SODIUM ORTHOVANAD |  |  |  | inhibition [19]: 97.4%
33 | CCCC[C@@H](C(=O)O)N1C(=O)/C(=C/c2ccc(-c3ccncc3Cl)cc2)SC1=S | 97.1 |  | 6.10 | 
